Earlier results in patent US20240398793A1, “Methods of Treating Lymphedema” (Celltaxis, LLC, priority 2021, published 2024).
Entries after “also recorded” stand apart in the source; their conditions may differ.

Legend:
LTA4H aminopeptidase [1] = target: T1, LTA4H aminopeptidase (Homo sapiens (Human), UniProt P09960); settings: read-out: Aminopeptidase IC50 ± SEM; cited from earlier work
[2] = test system: lymphedema of the lower limb; settings: Phase 2, lymphedema of the lower limb; cited from earlier work
aminopeptidases = settings: Bhatt et al. (2017); Inoi et al. (1995); cited from earlier work
[3] = test system: experimental acquired lymphedema; settings: cited from earlier work
LTA4H aminopeptidase [4] = target: T1, LTA4H aminopeptidase; settings: Bhatt et al. (2017); Inoi et al. (1995); cited from earlier work
LTA4H epoxide hydrolase = LTA4H epoxide hydrolase (Homo sapiens (Human), UniProt P09960); settings: read-out: EH (Epoxide Hydrolase) IC50 ± SEM; cited from earlier work
LTA4H epoxide hydrolase, sequence (P09960 whole entry): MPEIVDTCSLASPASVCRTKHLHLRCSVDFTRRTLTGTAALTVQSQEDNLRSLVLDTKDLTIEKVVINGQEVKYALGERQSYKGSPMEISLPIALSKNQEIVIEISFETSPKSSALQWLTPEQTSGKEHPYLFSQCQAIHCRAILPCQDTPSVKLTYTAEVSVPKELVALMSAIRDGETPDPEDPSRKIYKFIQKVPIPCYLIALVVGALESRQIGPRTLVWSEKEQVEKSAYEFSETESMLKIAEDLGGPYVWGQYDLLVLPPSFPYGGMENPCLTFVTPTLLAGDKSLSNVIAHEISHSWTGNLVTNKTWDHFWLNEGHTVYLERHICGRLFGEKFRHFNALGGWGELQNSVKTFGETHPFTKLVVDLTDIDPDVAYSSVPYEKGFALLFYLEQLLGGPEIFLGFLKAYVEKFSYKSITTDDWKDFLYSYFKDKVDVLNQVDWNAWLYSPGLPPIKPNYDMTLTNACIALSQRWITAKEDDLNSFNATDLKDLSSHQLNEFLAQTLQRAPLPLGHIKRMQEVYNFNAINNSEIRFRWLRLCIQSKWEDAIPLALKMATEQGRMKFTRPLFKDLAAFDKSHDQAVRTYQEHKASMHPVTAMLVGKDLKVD

human lymphedema = settings: adult lymphedema subjects, open-label and placebo-controlled pilot; cited from earlier work

T1 sequence (P09960 whole entry): as above

Structure (SMILES)	IC50 (LTA4H aminopeptidase [1])	also measured
CCOc1cc(O)cc(CCc2ccc(O)cc2)c1 [Compound 7]	> 100 µM	
O=c1c(-c2ccc(O)cc2)coc2cc(O)ccc12 [Compound 11]	> 100 µM	
CC(C)C[C@H](NC(=O)[C@@H](O)[C@H](N)Cc1ccccc1)C(=O)O [Ubenimex]		improvement in skin thickness, limb volume and bioimpedance over placebo [2]: did not identify an improvement; aminopeptidase inhibition spectrum (aminopeptidases): broad spectrum aminopeptidase inhibitor; edema, lymphatic function, lymphatic architecture ([3]; murine model of lymphedema): reversed edema, improved lymphatic function, and restored lymphatic architecture; LTA4H selectivity (LTA4H aminopeptidase [4]): non-selective LTA4H inhibitor
O=c1c(-c2ccc(O)cc2)coc2c3c(ccc12)OCO3 [Compound 14]	20.6 ± 3.3 µM	IC50 (LTA4H epoxide hydrolase): 20.6 ± 24 µM
Cc1ccc2c(=O)c(-c3ccc(O)cc3)coc2c1O [Compound 15]	69.2 ± 10.9 µM	
O=c1c(-c2ccc(O)cc2)coc2c(O)cccc12 [Compound 12]	62.7 ± 13.3 µM	IC50 (LTA4H epoxide hydrolase): 7.3 ± 0.8 µM
CC(C(=O)O)c1cccc(C(=O)c2ccccc2)c1 (stereo not shown) [ketoprofen]		skin thickness and cutaneous histopathology (human lymphedema): salutary effects; also recorded: improve skin thickness; lymphedema disease burden ([3]; mice, systemic administration): documented reversal of disease burden; also recorded: disease burden was reversed
COc1cc(O)cc(CCc2ccccc2O)c1 [Compound 9]	> 100 µM	
O=C(Cc1ccc(O)cc1)c1ccc(O)cc1O [Compound 10]	> 100 µM	
COc1cc(O)cc(CCc2ccc(O)cc2)c1 [Compound 6]	> 100 µM	
CC(=O)Oc1ccc(/C=C/c2cc(OC(C)=O)cc(OC(C)=O)c2)cc1 [Compound 4]	> 100 µM	
COc1cc(O)cc(CCc2cccc(O)c2)c1 [Compound 8]	> 100 µM	
O=c1c(-c2ccccc2)coc2cc(O)ccc12 [Compound 13]	> 100 µM	
